{"source": "paper PMC7516806", "about": "“Hybrid Antimicrobial Peptide Targeting Staphylococcus aureus and Displaying Anti-infective Activity in a Murine Model” (Frontiers in Microbiology, 2020)", "key": {"[1]": {"system": "S. aureus 29213", "assay": "Cytoplasmic membrane depolarization, diSC3-5", "format": "cell-based, Staphylococcus aureus", "conditions": "0.4 μM diSC3-5, 100 mM KCl, ex 622 nm, em 670 nm", "protocol": "The dye diSC3-5 was employed to assay cytoplasmic membrane depolarization activities ([Shao et al., 2018]). S. aureus 29213 was diluted to an OD600 = 0.05 after washing three times with buffer (5 mM HEPES, 5 mM glucose, pH 7.4) when the bacteria grew to mid-log phase. Then, diSC3-5 at a final concentration of 0.4 μM was added into the medium and incubated for 1–1.5 h. The final concentration of 100 mM KCl was then added to the solution for 15 min. The peptides were added to 12-well plates, which were filled with 2 mL of cell suspension. An F-4500 fluorescence spectrophotometer (Hitachi, Japan) was employed to measure the fluorescence value at an excitation wavelength of 622 nm and an emission wavelength of 670 nm. Maximal augmentation was monitored, and the fluorescence of the mixture of bacteria and dye served as the blank control."}, "[2]": {"system": "Staphylococcus aureus 29213", "assay": "Propidium iodide uptake assay", "format": "cell-based", "conditions": "0.5 × MIC, MIC and 2 × MIC; 10 μg/mL PI; ex 535 nm, em 617 nm", "protocol": "Staphylococcus aureus 29213 was washed three times with buffer (5 mM HEPES, 5 mM glucose, pH 7.4) after the bacterium grew to the mid-log phase and then diluted to an OD600 = 0.05. Propidium iodide was then added to the final concentration of 10 μg/mL and incubated for 30 min at 4°C. The peptides were added to 12-well plates, which were filled with 2 mL of the cell suspension. An F-4500 fluorescence spectrophotometer (Hitachi, Japan) was employed to measure the fluorescence value at an excitation wavelength of 535 nm and an emission wavelength of 617 nm. Maximal augmentation was monitored, and the fluorescence of the mixture of bacteria and dye served as the blank control ([Morita et al., 2015])."}, "[3]": {"system": "E. coli 25922", "assay": "MIC, modified microtiter dilution", "format": "cell-based, Escherichia coli", "conditions": "MHB, 2–7 × 10^5 CFU/ml, 37°C, 24 h, lowest concentration with no turbidity, at least three independent repeats", "from_the_text": "(§1) The experiment was repeated at least three times independently."}, "[4]": {"system": "E. coli UB1005", "assay": "MIC, modified microtiter dilution", "format": "cell-based, Escherichia coli", "conditions": "MHB, 2–7 × 10^5 CFU/ml, 37°C, 24 h, no turbidity, at least three independent repeats", "from_the_text": "as §1"}, "[5]": {"system": "E. coli K88", "conditions": "MHB, 2–7 × 10^5 CFU/ml, 37°C, 24 h, no turbidity, at least three independent repeats", "from_the_text": "(§2) The bacterial strains Escherichia coli (E. coli) ATCC 25922, E. coli K88, E. coli K99, Pseudomonas aeruginosa (P. aeruginosa) ATCC 27853, Escherichia coli (E. coli) UB1005, Salmonella typhimurium 14028, Salmonella pullorum (S. pullorum) C7913, S. typhimurium C7731, S. aureus ATCC 29213, MRSA ATCC 43300, and S. aureus ATCC 25923 were obtained from the College of Veterinary Medicine, Northeast Agricultural University, China. Lactobacillus plantarum (L. plantarum) 8014, Lactobacillus rhamnosus (L. rhamnosus) 7469, L. rhamnosus 1.0911, L. rhamnosus 1.0936, and L. rhamnosus 1.0385 were obtained from the Key Laboratory of Food College, Northeast Agricultural University, China.\n(§3) As in a previous study, the antimicrobial activities of the AMPs were investigated using a modified standard microtiter dilution method ([Dong et al., 2014]). The peptides were serially diluted with a solution containing 0.01% acetic acid and 0.2% bovine serum albumin (BSA, Sigma) in 96-well plates. The bacteria grew to the mid-log phase and then were dissolved in MHB at concentration of 2–7 × 10^5 CFU/ml. The peptides and bacterial solution were mixed in equal volume in a 37°C incubator for 24 h. […] Mueller-Hinton broth with microorganisms was used as the positive control, and the pure broth was used as the negative control. The experiment was repeated at least three times independently."}, "[6]": {"system": "E. coli K99", "conditions": "MHB, 2–7 × 10^5 CFU/ml, 37°C, 24 h, no turbidity, at least three independent repeats", "from_the_text": "as §2, §3"}, "[7]": {"system": "S. typhimurium 14028", "assay": "MIC, modified microtiter dilution", "format": "cell-based, Salmonella typhimurium", "conditions": "MHB, 2–7 × 10^5 CFU/ml, 37°C, 24 h, no turbidity, at least three independent repeats", "from_the_text": "as §1"}, "[8]": {"system": "S. typhimurium 7731", "assay": "MIC, modified microtiter dilution", "format": "cell-based, Salmonella typhimurium", "conditions": "MHB, 2–7 × 10^5 CFU/ml, 37°C, 24 h, no turbidity, at least three independent repeats", "from_the_text": "as §1"}, "[9]": {"system": "S. pullorum 7913", "assay": "MIC, modified microtiter dilution", "format": "cell-based, Salmonella pullorum", "conditions": "MHB, 2–7 × 10^5 CFU/ml, 37°C, 24 h, no turbidity, at least three independent repeats", "from_the_text": "as §1"}, "[10]": {"system": "P. aeruginosa 27853", "assay": "MIC, modified microtiter dilution", "format": "cell-based, Pseudomonas aeruginosa", "conditions": "MHB, 2–7 × 10^5 CFU/ml, 37°C, 24 h, no turbidity, at least three independent repeats", "from_the_text": "as §1"}, "[11]": {"system": "S. aureus 25923", "assay": "MIC, modified microtiter dilution", "format": "cell-based, Staphylococcus aureus", "conditions": "MHB, 2–7 × 10^5 CFU/ml, 37°C, 24 h, no turbidity, at least three independent repeats", "from_the_text": "as §1"}, "[12]": {"system": "S. aureus 29213", "assay": "MIC, modified microtiter dilution", "format": "cell-based, Staphylococcus aureus", "conditions": "MHB, 2–7 × 10^5 CFU/ml, 37°C, 24 h, no turbidity, at least three independent repeats", "from_the_text": "as §1"}, "[13]": {"system": "MRSA 43300", "format": "cell-based, Staphylococcus aureus", "conditions": "MHB, 2–7 × 10^5 CFU/ml, 37°C, 24 h, no turbidity, at least three independent repeats", "from_the_text": "as §1"}, "[14]": {"system": "L. plantarum 8014", "assay": "MIC, modified microtiter dilution", "format": "cell-based, Lactobacillus plantarum", "conditions": "2–7 × 10^5 CFU/ml, 37°C, 24 h, no turbidity, at least three independent repeats", "from_the_text": "as §1"}, "[15]": {"system": "L. rhamnosus 1.0385", "assay": "MIC, modified microtiter dilution", "format": "cell-based, Lactobacillus rhamnosus", "conditions": "2–7 × 10^5 CFU/ml, 37°C, 24 h, no turbidity, at least three independent repeats", "from_the_text": "as §1"}, "[16]": {"system": "L. rhamnosus 1.0911", "assay": "MIC, modified microtiter dilution", "format": "cell-based, Lactobacillus rhamnosus", "conditions": "2–7 × 10^5 CFU/ml, 37°C, 24 h, no turbidity, at least three independent repeats", "from_the_text": "as §1"}, "[17]": {"system": "L. rhamnosus 1.0936", "assay": "MIC, modified microtiter dilution", "format": "cell-based, Lactobacillus rhamnosus", "conditions": "2–7 × 10^5 CFU/ml, 37°C, 24 h, no turbidity, at least three independent repeats", "from_the_text": "as §1"}, "[18]": {"system": "L. rhamnosus 7469", "assay": "MIC, modified microtiter dilution", "format": "cell-based, Lactobacillus rhamnosus", "conditions": "2–7 × 10^5 CFU/ml, 37°C, 24 h, no turbidity, at least three independent repeats", "from_the_text": "as §1"}, "[19]": {"system": "S. aureus 29213", "assay": "MIC in the presence of physiological salts", "format": "cell-based, Staphylococcus aureus", "conditions": "three independent repeats, unit not given in Table 4", "protocol": "as §1\nThe MIC of peptides was determined in the presence of salts at physiological concentrations (150 mM NaCl, 4.5 mM KCl, 6 μM NH4Cl, 8 μM ZnCl2, 1 mM MgCl2, 2 mM CaCl2, and 4 μM FeCl3) as described previously ([Dong et al., 2014]). All experiments were performed three times independently."}, "[20]": {"system": "panel of bacterial species", "assay": "MIC against a panel of bacterial species (summary statements)", "format": "cell-based", "conditions": "all tested Gram-negative bacteria except P. aeruginosa 27853", "from_the_text": "as §1"}, "[21]": {"system": "RAW 264.7 cells", "assay": "Cytotoxicity, MTT dye reduction assay", "format": "cell-based, murine", "conditions": "highest concentration of 128 μM, 4 h, three independent repeats", "protocol": "The cytotoxicity of peptides was determined by healthy human erythrocytes and the murine macrophage cell line RAW 264.7 via a hemolysis assay and MTT dye reduction assay, respectively ([Wang et al., 2018]). In the hemolysis assay, fresh hRBCs from healthy people were centrifuged for 5 min at 1,000 × g and then washed three times with PBS (pH = 7.2). The 100 μL erythrocyte suspension and peptides were incubated for 1.5 h in an incubator at 37°C. The 96-well plates were centrifuged at 1,000 × g for 5 min, and the supernatants were carefully aspirated. The absorbance at 570 nm indicated the leakage of hemoglobin. The hRBCs in the PBS sample was used as the negative control, and 0.1% Triton X-100 addition served as the positive control. In the MTT dye reduction assay, 1.0–2.0 × 10^5 cells were plated in 96-well plates and then treated with various concentrations of peptides for 4 h at 37°C in a 5% CO2 incubator. Subsequently, 50 μL of MTT was added to the plated cells at a final concentration of 0.5 mg/mL and incubated for 4 h. Then, the cells were centrifuged at 1000 × g for 5 min, and the supernatants were discarded. Formazan crystals were dissolved in 150 μL of DMSO, and the OD570 nm was measured using a microplate reader (TECAN GENios F129004; TECAN, Austria). The experiment was repeated three times independently."}}, "note": "Positions of bridges follow the written chain, without caps; N, C: chain ends. Residues, ends and D or L forms follow the SMILES beside them."}
{"compound": "melittin [reference compound]", "values": [{"measurement": "cytoplasmic membrane depolarization (diSC3-5 fluorescence)", "setting": "[1]", "value": "rapid fluorescence intensity increase"}, {"measurement": "PI uptake (PI fluorescence)", "setting": "[2]", "value": "rapidly disrupted the bacterial membrane and caused PI uptake"}]}
{"compound": "C[C@@H]1NC(=O)[C@@H](N)CSSC[C@@H](C(=O)N[C@@H](CCCNC(=N)N)C(=O)N[C@@H](Cc2c[nH]c3ccccc23)C(=O)N[C@@H](Cc2c[nH]c3ccccc23)C(=O)N[C@@H](Cc2c[nH]c3ccccc23)C(=O)N[C@@H](CCCNC(=N)N)C(=O)N[C@@H](CCCNC(=N)N)C(N)=O)NC(=O)[C@H](Cc2ccccc2)NC(=O)[C@H](Cc2ccc(O)cc2)NC(=O)[C@H](CO)NC1=O", "note": "[Peptide S1] (H-CASYFCRWWWRR-NH2; disulfide 1-6; N-terminus assumed)", "values": [{"measurement": "MIC E. coli 25922", "setting": "[3]", "value": 8, "unit": "µM"}, {"measurement": "MIC E. coli UB1005", "setting": "[4]", "value": 8, "unit": "µM"}, {"measurement": "MIC E. coli K88", "setting": "[5]", "value": 32, "unit": "µM"}, {"measurement": "MIC E. coli K99", "setting": "[6]", "value": 4, "unit": "µM"}, {"measurement": "MIC S. typhimurium 14028", "setting": "[7]", "value": 64, "unit": "µM"}, {"measurement": "MIC S. typhimurium 7731", "setting": "[8]", "value": 32, "unit": "µM"}, {"measurement": "MIC S. pullorum 7913", "setting": "[9]", "value": 8, "unit": "µM"}, {"measurement": "MIC P. aeruginosa 27853", "setting": "[10]", "value": ">64", "unit": "µM"}, {"measurement": "MIC S. aureus 25923", "setting": "[11]", "value": 4, "unit": "µM"}, {"measurement": "MIC S. aureus 29213", "setting": "[12]", "value": 4, "unit": "µM"}, {"measurement": "MIC MRSA 43300", "setting": "[13]", "value": 4, "unit": "µM"}, {"measurement": "MIC L. plantarum 8014", "setting": "[14]", "value": ">64", "unit": "µM"}, {"measurement": "MIC L. rhamnosus 1.0385", "setting": "[15]", "value": ">64", "unit": "µM"}, {"measurement": "MIC L. rhamnosus 1.0911", "setting": "[16]", "value": ">64", "unit": "µM"}, {"measurement": "MIC L. rhamnosus 1.0936", "setting": "[17]", "value": ">64", "unit": "µM"}, {"measurement": "MIC L. rhamnosus 7469", "setting": "[18]", "value": ">64", "unit": "µM"}, {"measurement": "MIC against S. aureus 29213, FeCl3", "setting": "[19]; 4 μM FeCl3", "value": 8, "unit": "µM"}, {"measurement": "MIC against S. aureus 29213, NH4Cl", "setting": "[19]; 6 μM NH4Cl", "value": 4, "unit": "µM"}, {"measurement": "MIC against S. aureus 29213, ZnCl2", "setting": "[19]; 8 μM ZnCl2", "value": 1, "unit": "µM"}, {"measurement": "MIC against S. aureus 29213, MgCl2", "setting": "[19]; 1 mM MgCl2", "value": 4, "unit": "µM"}, {"measurement": "MIC against S. aureus 29213, CaCl2", "setting": "[19]; 2 mM CaCl2", "value": 8, "unit": "µM"}, {"measurement": "MIC against S. aureus 29213, KCl", "setting": "[19]; 4.5 mM KCl", "value": 4, "unit": "µM"}, {"measurement": "MIC against S. aureus 29213, NaCl", "setting": "[19]; 150 mM NaCl", "value": 4, "unit": "µM"}, {"measurement": "concentrations suppressing growth of tested Gram-negative bacteria", "setting": "[20]", "value": "4 to 64", "unit": "µM"}, {"measurement": "RAW 264.7 cell survival rate", "setting": "[21]", "value": 86, "unit": "%"}]}
